From patent US10870647B2, “Imidazopyridine derivative, method for preparing same, and pharmaceutical composition containing same as active ingredient for preventing or treating cancer” (DAEGU-GYEONGBUK MEDICAL INNOVATION FOUNDATION, priority 2016, dated 2020)
Like-named read-outs stand apart in the source and are kept apart here.

Experiments:
Assay in all cases: Kinase selectivity, scanMAX Kinase assay panel (DiscoverX), % control at 1 uM
Type in all cases: binding
[1] = target: T1, scanMAX Kinase assay panel (Homo sapiens, UniProt P42336, E545A); conditions: PIK3CA (E545A); 1 uM; read-out: Percent Control (%)
T1 construct: purchased DiscoverX
Method in brief: (§1)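 A single concentration of 1 uM, in DMSO, is applied across the kinase panel. Activity against an individual enzyme is assigned where % control is less than 35.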

[2] = target: T2, scanMAX Kinase assay panel (Homo sapiens, UniProt Q16659); conditions: ERK3; 1 uM; read-out: Percent Control (%)
T2 construct: purchased DiscoverX
Method in brief: as §1

[3] = target: T3, scanMAX Kinase assay panel (Homo sapiens, UniProt Q99640); conditions: PKMYT1; 1 uM; read-out: Percent Control (%)
T3 construct: purchased DiscoverX
T3 sequence (Q99640 1-499): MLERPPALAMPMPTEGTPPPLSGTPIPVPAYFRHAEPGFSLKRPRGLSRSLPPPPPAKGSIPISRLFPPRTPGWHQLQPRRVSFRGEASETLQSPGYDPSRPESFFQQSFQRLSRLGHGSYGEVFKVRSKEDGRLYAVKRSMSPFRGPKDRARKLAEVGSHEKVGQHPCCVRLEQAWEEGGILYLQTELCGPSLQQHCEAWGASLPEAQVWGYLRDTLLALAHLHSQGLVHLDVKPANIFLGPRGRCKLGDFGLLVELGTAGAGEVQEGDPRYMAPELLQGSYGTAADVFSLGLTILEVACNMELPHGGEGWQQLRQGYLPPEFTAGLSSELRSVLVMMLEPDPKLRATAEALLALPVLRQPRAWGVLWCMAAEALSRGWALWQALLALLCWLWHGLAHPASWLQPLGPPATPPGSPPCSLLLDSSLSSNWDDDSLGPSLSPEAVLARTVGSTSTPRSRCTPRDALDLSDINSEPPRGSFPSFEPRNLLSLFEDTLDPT
Method in brief: as §1

[4] = target: T4, scanMAX Kinase assay panel (Homo sapiens, UniProt Q92918); conditions: HPK1; 1 uM; read-out: Percent Control (%)
T4 construct: purchased DiscoverX
Method in brief: as §1

[5] = target: T5, scanMAX Kinase assay panel (Homo sapiens, UniProt Q9Y2H9); conditions: MAST1; 1 uM; read-out: Percent Control (%)
T5 construct: purchased DiscoverX
Method in brief: as §1

[6] = target: T6, scanMAX Kinase assay panel (Homo sapiens, UniProt P54764); conditions: EPHA4; 1 uM; read-out: Percent Control (%)
T6 construct: purchased DiscoverX
Method in brief: as §1

[7] = target: T7, scanMAX Kinase assay panel (Homo sapiens, UniProt P45984); conditions: JNK2; 1 uM; read-out: Percent Control (%)
T7 construct: purchased DiscoverX
Method in brief: as §1

[8] = target: T8, scanMAX Kinase assay panel (Homo sapiens, UniProt Q9Y2H1); conditions: NDR2; 1 uM; read-out: Percent Control (%)
T8 construct: purchased DiscoverX
Method in brief: as §1

[9] = target: T9, scanMAX Kinase assay panel (Homo sapiens, UniProt P00533); conditions: EGFR; 1 uM; read-out: Percent Control (%)
T9 construct: purchased DiscoverX
Method in brief: as §1

[10] = target: T10, scanMAX Kinase assay panel (Homo sapiens, UniProt Q9P2K8, S808G); conditions: GCN2 (Kin.Dom.2, S808G); 1 uM; read-out: Percent Control (%)
T10 construct: purchased DiscoverX
Method in brief: as §1

[11] = target: T11, scanMAX Kinase assay panel (Homo sapiens, UniProt O75582); conditions: 1 uM, read-out: Percent Control (%)
T11 construct: purchased DiscoverX
Method in brief: as §1

[12] = target: T12, scanMAX Kinase assay panel (Homo sapiens, UniProt P08631); conditions: HCK; 1 uM; read-out: Percent Control (%)
T12 construct: purchased DiscoverX
Method in brief: as §1

[13] = target: T13, scanMAX Kinase assay panel (Homo sapiens, UniProt Q9H4B4); conditions: PLK3; 1 uM; read-out: Percent Control (%)
T13 construct: purchased DiscoverX
Method in brief: as §1

[14] = target: T14, scanMAX Kinase assay panel (Homo sapiens, UniProt O43283); conditions: LZK; 1 uM; read-out: Percent Control (%)
T14 construct: purchased DiscoverX
T14 sequence (O43283 1-966): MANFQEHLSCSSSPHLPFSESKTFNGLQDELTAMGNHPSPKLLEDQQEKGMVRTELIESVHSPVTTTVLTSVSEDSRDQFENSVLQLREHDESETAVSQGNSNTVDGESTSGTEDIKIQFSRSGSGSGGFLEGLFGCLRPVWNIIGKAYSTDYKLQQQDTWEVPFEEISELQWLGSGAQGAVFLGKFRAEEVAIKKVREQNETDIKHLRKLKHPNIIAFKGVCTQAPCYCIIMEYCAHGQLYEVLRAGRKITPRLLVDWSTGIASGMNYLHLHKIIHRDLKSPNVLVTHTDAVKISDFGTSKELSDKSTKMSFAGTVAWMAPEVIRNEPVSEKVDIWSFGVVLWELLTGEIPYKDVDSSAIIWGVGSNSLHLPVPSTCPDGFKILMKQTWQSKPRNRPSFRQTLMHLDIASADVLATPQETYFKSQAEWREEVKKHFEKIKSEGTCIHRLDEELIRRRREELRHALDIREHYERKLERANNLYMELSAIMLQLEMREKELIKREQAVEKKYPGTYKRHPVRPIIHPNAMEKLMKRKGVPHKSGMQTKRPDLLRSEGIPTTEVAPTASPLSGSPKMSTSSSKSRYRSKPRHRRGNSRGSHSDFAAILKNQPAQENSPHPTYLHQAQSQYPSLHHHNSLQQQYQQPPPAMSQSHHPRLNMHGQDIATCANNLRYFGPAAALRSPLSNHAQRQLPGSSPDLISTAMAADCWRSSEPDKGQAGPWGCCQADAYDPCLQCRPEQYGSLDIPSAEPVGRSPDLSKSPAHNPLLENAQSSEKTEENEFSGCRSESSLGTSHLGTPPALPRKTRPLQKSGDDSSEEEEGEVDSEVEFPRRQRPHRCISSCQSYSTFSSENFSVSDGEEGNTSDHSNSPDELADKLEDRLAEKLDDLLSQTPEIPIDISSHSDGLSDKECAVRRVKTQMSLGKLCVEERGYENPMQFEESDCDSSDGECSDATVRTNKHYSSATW
Method in brief: as §1

T12 sequence (P08631 whole entry): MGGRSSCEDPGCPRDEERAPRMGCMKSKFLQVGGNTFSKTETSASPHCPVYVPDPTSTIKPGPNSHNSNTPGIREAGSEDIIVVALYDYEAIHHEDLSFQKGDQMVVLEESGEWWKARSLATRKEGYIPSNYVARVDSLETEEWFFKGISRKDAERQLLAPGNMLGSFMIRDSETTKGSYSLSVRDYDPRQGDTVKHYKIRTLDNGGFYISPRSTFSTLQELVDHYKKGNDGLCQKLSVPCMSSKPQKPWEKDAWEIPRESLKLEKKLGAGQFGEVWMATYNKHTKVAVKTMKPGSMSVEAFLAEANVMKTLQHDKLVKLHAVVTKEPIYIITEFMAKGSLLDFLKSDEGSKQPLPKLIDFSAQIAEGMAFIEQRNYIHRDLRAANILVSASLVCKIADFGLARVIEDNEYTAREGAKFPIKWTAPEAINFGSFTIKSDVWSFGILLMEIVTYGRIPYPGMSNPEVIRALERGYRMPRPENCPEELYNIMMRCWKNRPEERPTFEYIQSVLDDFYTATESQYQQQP
T6 sequence (P54764 20-986): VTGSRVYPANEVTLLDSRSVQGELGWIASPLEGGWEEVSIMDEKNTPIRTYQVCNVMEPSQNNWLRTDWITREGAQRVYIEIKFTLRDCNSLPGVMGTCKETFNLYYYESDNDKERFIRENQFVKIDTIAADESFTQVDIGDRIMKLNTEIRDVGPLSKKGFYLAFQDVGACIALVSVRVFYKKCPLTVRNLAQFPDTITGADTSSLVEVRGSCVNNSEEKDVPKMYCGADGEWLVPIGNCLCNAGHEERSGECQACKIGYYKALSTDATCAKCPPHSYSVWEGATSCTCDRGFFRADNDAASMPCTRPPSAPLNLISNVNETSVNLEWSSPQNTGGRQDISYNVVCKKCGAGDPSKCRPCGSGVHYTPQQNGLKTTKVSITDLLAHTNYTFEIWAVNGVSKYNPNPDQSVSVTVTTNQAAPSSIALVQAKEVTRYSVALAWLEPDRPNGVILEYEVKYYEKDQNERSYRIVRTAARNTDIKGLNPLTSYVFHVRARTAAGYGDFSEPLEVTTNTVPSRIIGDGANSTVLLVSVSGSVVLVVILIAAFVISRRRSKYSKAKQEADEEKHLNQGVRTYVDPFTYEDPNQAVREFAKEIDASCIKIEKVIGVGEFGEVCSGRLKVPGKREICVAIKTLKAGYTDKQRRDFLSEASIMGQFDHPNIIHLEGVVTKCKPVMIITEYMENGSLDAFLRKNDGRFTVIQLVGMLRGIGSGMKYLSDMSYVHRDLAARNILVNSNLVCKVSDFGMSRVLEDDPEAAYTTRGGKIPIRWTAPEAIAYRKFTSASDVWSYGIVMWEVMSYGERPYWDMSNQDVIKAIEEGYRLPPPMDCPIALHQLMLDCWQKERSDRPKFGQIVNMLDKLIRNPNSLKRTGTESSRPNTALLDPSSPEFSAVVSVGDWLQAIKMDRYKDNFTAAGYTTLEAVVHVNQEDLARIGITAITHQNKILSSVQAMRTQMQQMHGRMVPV
T11 sequence (O75582 whole entry): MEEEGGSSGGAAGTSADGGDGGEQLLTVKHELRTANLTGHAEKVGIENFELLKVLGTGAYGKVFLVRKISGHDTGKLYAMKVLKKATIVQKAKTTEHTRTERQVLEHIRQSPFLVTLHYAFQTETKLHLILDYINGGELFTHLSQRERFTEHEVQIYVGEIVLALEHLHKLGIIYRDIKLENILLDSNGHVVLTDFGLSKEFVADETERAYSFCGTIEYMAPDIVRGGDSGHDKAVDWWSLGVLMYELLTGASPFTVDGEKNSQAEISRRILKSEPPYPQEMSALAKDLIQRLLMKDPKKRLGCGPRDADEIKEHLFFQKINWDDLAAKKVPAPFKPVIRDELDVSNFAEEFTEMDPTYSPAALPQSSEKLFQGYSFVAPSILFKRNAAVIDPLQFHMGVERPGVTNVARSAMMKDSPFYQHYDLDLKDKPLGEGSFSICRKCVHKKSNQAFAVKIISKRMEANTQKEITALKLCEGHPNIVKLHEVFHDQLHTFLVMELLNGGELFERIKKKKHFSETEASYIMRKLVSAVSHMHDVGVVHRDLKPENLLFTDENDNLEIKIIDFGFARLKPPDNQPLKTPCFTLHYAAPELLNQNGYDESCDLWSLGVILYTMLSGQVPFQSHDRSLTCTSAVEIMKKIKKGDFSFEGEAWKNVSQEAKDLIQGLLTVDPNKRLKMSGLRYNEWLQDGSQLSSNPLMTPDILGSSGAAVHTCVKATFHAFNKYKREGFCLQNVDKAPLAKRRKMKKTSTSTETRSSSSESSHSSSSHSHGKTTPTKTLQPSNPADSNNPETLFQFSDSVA
T8 sequence (Q9Y2H1 whole entry): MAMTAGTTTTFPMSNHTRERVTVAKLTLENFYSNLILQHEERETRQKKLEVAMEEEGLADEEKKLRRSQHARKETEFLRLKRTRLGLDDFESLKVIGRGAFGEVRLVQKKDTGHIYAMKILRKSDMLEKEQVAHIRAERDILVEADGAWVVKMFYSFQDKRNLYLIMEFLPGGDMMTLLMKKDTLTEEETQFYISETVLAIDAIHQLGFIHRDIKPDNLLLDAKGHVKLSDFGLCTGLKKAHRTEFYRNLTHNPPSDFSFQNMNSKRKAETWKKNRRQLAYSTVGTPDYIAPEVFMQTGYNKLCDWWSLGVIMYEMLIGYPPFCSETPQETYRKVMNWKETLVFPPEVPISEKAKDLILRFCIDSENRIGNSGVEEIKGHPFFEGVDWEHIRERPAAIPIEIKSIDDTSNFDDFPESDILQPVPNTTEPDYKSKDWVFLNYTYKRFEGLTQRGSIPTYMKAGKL
T13 sequence (Q9H4B4 whole entry): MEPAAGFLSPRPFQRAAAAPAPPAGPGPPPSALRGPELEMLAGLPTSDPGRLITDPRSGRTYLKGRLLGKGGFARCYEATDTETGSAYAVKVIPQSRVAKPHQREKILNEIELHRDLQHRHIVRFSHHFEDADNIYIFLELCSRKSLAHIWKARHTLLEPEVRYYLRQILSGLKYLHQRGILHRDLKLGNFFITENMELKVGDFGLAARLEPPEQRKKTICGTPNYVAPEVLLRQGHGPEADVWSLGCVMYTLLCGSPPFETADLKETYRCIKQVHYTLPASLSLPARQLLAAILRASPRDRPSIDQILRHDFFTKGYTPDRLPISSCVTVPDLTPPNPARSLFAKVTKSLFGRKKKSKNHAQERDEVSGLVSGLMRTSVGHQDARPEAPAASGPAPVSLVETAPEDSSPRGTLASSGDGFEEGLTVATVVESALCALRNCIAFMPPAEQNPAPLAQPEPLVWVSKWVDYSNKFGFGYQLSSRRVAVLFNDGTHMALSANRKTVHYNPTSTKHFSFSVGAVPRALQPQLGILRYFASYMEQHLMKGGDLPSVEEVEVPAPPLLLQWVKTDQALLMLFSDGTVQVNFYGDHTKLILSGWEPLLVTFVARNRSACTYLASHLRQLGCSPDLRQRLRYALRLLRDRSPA
T10 sequence (Q9P2K8 whole entry S808G): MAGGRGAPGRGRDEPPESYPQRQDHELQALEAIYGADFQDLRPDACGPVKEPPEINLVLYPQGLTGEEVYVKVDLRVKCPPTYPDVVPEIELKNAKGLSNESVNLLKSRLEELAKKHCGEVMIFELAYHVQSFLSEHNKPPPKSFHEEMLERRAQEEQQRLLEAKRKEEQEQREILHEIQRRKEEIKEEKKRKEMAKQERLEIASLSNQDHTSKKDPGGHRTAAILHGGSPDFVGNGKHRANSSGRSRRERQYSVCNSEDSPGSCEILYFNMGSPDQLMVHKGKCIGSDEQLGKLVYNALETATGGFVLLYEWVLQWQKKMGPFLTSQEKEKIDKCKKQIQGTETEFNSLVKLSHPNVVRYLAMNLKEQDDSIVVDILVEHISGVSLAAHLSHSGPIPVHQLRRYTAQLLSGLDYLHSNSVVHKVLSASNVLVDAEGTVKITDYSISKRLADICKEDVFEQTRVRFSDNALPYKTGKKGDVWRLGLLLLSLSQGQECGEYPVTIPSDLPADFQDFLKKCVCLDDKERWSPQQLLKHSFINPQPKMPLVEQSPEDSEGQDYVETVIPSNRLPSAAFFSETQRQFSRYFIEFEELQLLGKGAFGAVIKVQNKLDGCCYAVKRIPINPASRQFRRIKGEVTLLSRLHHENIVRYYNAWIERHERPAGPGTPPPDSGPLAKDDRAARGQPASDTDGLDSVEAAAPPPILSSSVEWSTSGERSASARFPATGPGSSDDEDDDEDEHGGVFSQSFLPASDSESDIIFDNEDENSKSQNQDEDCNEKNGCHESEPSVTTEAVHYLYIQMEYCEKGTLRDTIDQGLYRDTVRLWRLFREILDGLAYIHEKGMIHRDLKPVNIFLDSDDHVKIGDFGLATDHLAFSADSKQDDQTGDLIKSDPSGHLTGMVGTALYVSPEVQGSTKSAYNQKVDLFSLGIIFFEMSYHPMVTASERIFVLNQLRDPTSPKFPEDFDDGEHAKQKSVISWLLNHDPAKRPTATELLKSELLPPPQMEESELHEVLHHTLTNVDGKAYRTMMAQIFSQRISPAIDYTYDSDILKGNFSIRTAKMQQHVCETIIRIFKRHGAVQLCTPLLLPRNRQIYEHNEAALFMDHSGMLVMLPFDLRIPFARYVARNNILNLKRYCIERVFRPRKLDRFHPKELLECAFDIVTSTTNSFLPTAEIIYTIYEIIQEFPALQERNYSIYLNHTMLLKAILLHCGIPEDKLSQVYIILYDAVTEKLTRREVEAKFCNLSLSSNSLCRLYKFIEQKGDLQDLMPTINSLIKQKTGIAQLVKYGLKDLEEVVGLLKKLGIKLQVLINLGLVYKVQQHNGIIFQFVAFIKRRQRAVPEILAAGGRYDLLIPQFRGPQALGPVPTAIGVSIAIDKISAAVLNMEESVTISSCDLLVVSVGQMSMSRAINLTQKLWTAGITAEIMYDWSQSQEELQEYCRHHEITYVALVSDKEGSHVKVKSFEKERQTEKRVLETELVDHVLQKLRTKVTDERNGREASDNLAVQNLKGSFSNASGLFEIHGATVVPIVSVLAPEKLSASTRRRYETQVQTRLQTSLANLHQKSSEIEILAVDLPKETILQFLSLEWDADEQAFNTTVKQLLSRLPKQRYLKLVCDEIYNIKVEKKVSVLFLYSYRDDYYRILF

SMILES	remaining binding at 1 µM [1] [%]	remaining binding at 1 µM [2] [%]	remaining binding at 1 µM [3] [%]	remaining binding at 1 µM [4] [%]	remaining binding at 1 µM [5] [%]	remaining binding at 1 µM [6] [%]	remaining binding at 1 µM [7] [%]	remaining binding at 1 µM [8] [%]	remaining binding at 1 µM [9] [%]	remaining binding at 1 µM [10] [%]	remaining binding at 1 µM ([11]; RPS6KA5 (Kin.Dom.1-N-terminal)) [%]	remaining binding at 1 µM ([11]; RPS6KA5 (Kin.Dom.2-C-terminal)) [%]	remaining binding at 1 µM [12] [%]	remaining binding at 1 µM [13] [%]	remaining binding at 1 µM [14] [%]
Cc1ccc(NC(=O)C2(C(=O)Nc3ccc(F)cc3)CC2)cc1C#Cc1cnc2c(Nc3cnn(C(C)C)c3)cccn12 [Example 78]	100	100	90	78	82	91	100	98	85	89	100	100	71	92	94
Cc1cn(-c2cc(NC(=O)c3ccc(C)c(C#Cc4cnc5c(Nc6cnn(C)c6)cccn45)c3)cc(C(F)(F)F)c2)cn1 [Example 12, 4-methyl-N-(3-(4-methyl-1H-imidazol-1-yl)-5-(trifluoromethyl)phenyl)-3-((8-((1-methyl-1H-pyrazol-4-yl)amino)imidazo[1,2-a]pyridin-3-yl)ethynyl)benzamide]	79	94	98	5	56	24	66	84	28	76	99	94	1	100	100
Cc1ccc(C(=O)Nc2ccc(CN3CCN(C)CC3)c(C(F)(F)F)c2)cc1C#Cc1cnc2c(Nc3cnn(C)c3)cccn12 [Example 1, 4-methyl-3-((8-((1-methyl-1H-pyrazol-4-yl)amino)imidazo[1,2-a]pyridin-3-yl)ethynyl)-N-(4-((4-methylpiperazin-1-yl)methyl)-3-(trifluoromethyl)phenyl)benzamide]	87	100	93	1	81	1	0	23	3	0	38	69	0	77	71
